Reference: ChEMBL document CHEMBL1201862, “PubChem BioAssay data set” (2004)
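Test compounds were applied to cells in 96-well plates for 48 hours at 5 doses. At the GI50, growth is halved.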 The source made the active and inactive calls. No stated cut-off is given here; in the data, active = GI50 up to about 1.1 µM and inactive = higher.

Columns and labels:
Assay in all cases: DTP human tumour cell line panel, 48 h
[1] = tested on: SNB-75
[2] = tested on: SF-295
[3] = tested on: OVCAR-3
[4] = tested on: MOLT-4
[5] = tested on: U-251
[6] = tested on: OVCAR-4
[7] = tested on: SW-620
[8] = tested on: IGROV-1
[9] = tested on: MDA-MB-231
[10] = tested on: HCT-116
[11] = tested on: SK-MEL-5
[12] = tested on: SR
[13] = tested on: RPMI-8226
[14] = tested on: DU-145
[15] = tested on: HCC 2998
[16] = tested on: SF-268
[17] = tested on: NCI-H460
[18] = tested on: K562
[19] = tested on: HL-60
[20] = tested on: HOP-92

## O=C1c2scc(-c3ccccc3)c2-n2cccc21
[1]
  GI50: 3.46 µM (inactive)
[2]
  GI50: 18.1 µM (inactive)
[3]
  GI50: 16.3 µM (inactive)
[4]
  GI50: 13.4 µM (inactive)
[5]
  GI50: 14.1 µM (inactive)
[6]
  GI50: 75.9 µM (inactive)
[7]
  GI50: 16.3 µM (inactive)
[8]
  GI50: 2.59 µM (inactive)
[9]
  GI50: 14.8 µM (inactive)
[10]
  GI50: 13.4 µM (inactive)
[11]
  GI50: 15.1 µM (inactive)
[12]
  GI50: 13 µM (inactive)
[13]
  GI50: 5 µM (inactive)
[14]
  GI50: 26.3 µM (inactive)
[15]
  GI50: 20.4 µM (inactive)
[16]
  GI50: 14.3 µM (inactive)
[17]
  GI50: 31.1 µM (inactive)

## CC1CNC(NS(=O)(=O)c2cc(C(=O)Nc3ccc(Cl)cc3)c(Cl)cc2S)=NN1 (stereo not given)
[2]
  GI50: 35.8 µM (inactive)
[3]
  GI50: 28.2 µM (inactive)
[4]
  GI50: 52.8 µM (inactive)
[18]
  GI50: 31.1 µM (inactive)
[5]
  GI50: 37.2 µM (inactive)
[6]
  GI50: 28.6 µM (inactive)
[7]
  GI50: 34.1 µM (inactive)
[8]
  GI50: 36.1 µM (inactive)
[9]
  GI50: 37.8 µM (inactive)
[10]
  GI50: 27 µM (inactive)
[11]
  GI50: 14.1 µM (inactive)
[12]
  GI50: 27.2 µM (inactive)
[13]
  GI50: 28.9 µM (inactive)
[14]
  GI50: 30.2 µM (inactive)
[15]
  GI50: 19.1 µM (inactive)
[16]
  GI50: 11.5 µM (inactive)
[17]
  GI50: 38.5 µM (inactive)
[19]
  GI50: > 100 µM (inactive)

## CCOC(=O)c1cc(=O)oc2c1N(C)c1ncccc1N2
[1]
  GI50: > 100 µM (inactive)
[2]
  GI50: > 100 µM (inactive)
[3]
  GI50: > 100 µM (inactive)
[4]
  GI50: > 100 µM (inactive)
[18]
  GI50: > 100 µM (inactive)
[5]
  GI50: > 100 µM (inactive)
[6]
  GI50: > 100 µM (inactive)
[7]
  GI50: > 100 µM (inactive)
[9]
  GI50: 69.5 µM (inactive)
[10]
  GI50: > 100 µM (inactive)
[12]
  GI50: 63.4 µM (inactive)
[13]
  GI50: > 100 µM (inactive)
[14]
  GI50: > 100 µM (inactive)
[15]
  GI50: > 100 µM (inactive)
[16]
  GI50: > 100 µM (inactive)
[17]
  GI50: > 100 µM (inactive)

## O=C(/N=N/c1ccccc1Br)NNc1ccccc1Br
[1]
  GI50: > 100 µM (inactive)
[3]
  GI50: 86.3 µM (inactive)
[4]
  GI50: 25.6 µM (inactive)
[18]
  GI50: 27.3 µM (inactive)
[5]
  GI50: 60.8 µM (inactive)
[6]
  GI50: 56.2 µM (inactive)
[7]
  GI50: 67.1 µM (inactive)
[8]
  GI50: 55.6 µM (inactive)
[9]
  GI50: 62.2 µM (inactive)
[10]
  GI50: 24.7 µM (inactive)
[11]
  GI50: 48.4 µM (inactive)
[12]
  GI50: 32.8 µM (inactive)
[13]
  GI50: 33.8 µM (inactive)
[14]
  GI50: > 100 µM (inactive)
[15]
  GI50: 22.5 µM (inactive)
[16]
  GI50: > 100 µM (inactive)
[17]
  GI50: 70.3 µM (inactive)
[19]
  GI50: 23.6 µM (inactive)

## CC(C)(C)C(=O)Nc1cccc(-c2ccc[nH]2)n1
[1]
  GI50: > 60.8 µM (inactive)
[2]
  GI50: 99.8 µM (inactive)
[3]
  GI50: > 83.8 µM (inactive)
[5]
  GI50: > 70.5 µM (inactive)
[6]
  GI50: > 55.6 µM (inactive)
[20]
  GI50: > 100 µM (inactive)
[7]
  GI50: > 100 µM (inactive)
[8]
  GI50: > 100 µM (inactive)
[9]
  GI50: > 65 µM (inactive)
[10]
  GI50: > 100 µM (inactive)
[11]
  GI50: 68.7 µM (inactive)
[12]
  GI50: 67.1 µM (inactive)
[13]
  GI50: < 0.01 µM (active)
[14]
  GI50: > 100 µM (inactive)
[15]
  GI50: > 100 µM (inactive)
[16]
  GI50: > 100 µM (inactive)
[17]
  GI50: > 96.8 µM (inactive)

## Nn1c(=O)[nH]c2ncn(Cc3ccccc3)c2c1=O
[1]
  GI50: > 100 µM (inactive)
[2]
  GI50: > 100 µM (inactive)
[3]
  GI50: > 100 µM (inactive)
[4]
  GI50: > 100 µM (inactive)
[18]
  GI50: > 100 µM (inactive)
[5]
  GI50: > 100 µM (inactive)
[6]
  GI50: > 100 µM (inactive)
[20]
  GI50: > 100 µM (inactive)
[7]
  GI50: > 100 µM (inactive)
[8]
  GI50: > 100 µM (inactive)
[9]
  GI50: > 100 µM (inactive)
[10]
  GI50: > 100 µM (inactive)
[11]
  GI50: > 100 µM (inactive)
[12]
  GI50: > 100 µM (inactive)
[14]
  GI50: > 100 µM (inactive)
[15]
  GI50: > 100 µM (inactive)
[16]
  GI50: > 100 µM (inactive)
[17]
  GI50: > 100 µM (inactive)
[19]
  GI50: > 100 µM (inactive)

## Nc1nc(N)nc(-c2cnccn2)n1
[1]
  GI50: > 100 µM (inactive)
[2]
  GI50: > 100 µM (inactive)
[3]
  GI50: > 100 µM (inactive)
[4]
  GI50: > 100 µM (inactive)
[18]
  GI50: > 100 µM (inactive)
[5]
  GI50: > 100 µM (inactive)
[20]
  GI50: > 100 µM (inactive)
[7]
  GI50: > 100 µM (inactive)
[8]
  GI50: > 100 µM (inactive)
[9]
  GI50: 53 µM (inactive)
[10]
  GI50: > 100 µM (inactive)
[12]
  GI50: > 100 µM (inactive)
[14]
  GI50: > 100 µM (inactive)
[15]
  GI50: > 100 µM (inactive)
[16]
  GI50: > 100 µM (inactive)
[17]
  GI50: > 100 µM (inactive)

## CC/C=C/c1cc2c(cc1O)CCC1C2CC[C@@]2(C)C1CC[C@@H]2O (stereo not given in full)
[1]
  GI50: 1.44 µM (inactive)
[2]
  GI50: 0.34 µM (active)
[3]
  GI50: 0.265 µM (active)
[4]
  GI50: 1.97 µM (inactive)
[18]
  GI50: 1.28 µM (inactive)
[5]
  GI50: 1.7 µM (inactive)
[6]
  GI50: 19.9 µM (inactive)
[20]
  GI50: 12 µM (inactive)
[7]
  GI50: 1.12 µM (active)
[8]
  GI50: 4.37 µM (inactive)
[9]
  GI50: 3.53 µM (inactive)
[10]
  GI50: 1.02 µM (active)
[11]
  GI50: 1.56 µM (inactive)
[12]
  GI50: 0.34 µM (active)
[13]
  GI50: 1.89 µM (inactive)
[14]
  GI50: 2.76 µM (inactive)
[15]
  GI50: 14.7 µM (inactive)
[16]
  GI50: 10.2 µM (inactive)
[17]
  GI50: 0.82 µM (active)
